Measured values as given in patent US20210283092A1, “METHODS AND USES OF […] DERIVATIVES” (priority 2018, published 2021).
“Also recorded” adds a separate entry of the source.

Legend:
[1] = system: human neutrophils stimulated with MSU; assay: MSU-induced calcium mobilization in human neutrophils (Fura-2); format: cell-based; details: for effect on MSU-induced calcium levels: 10 μM 28a, 39, 47a, 89, 1 μM 14, 3 μM 43, TPO at indicated concentrations; for lowest concentration significantly inhibiting the MSU-induced increase in intracellular calcium: 1 mg/ml MSU, 30 min pre-incubation; for type of dose response, cytoplasmic calcium: 0.01 to 10 μM
Experimental: Neutrophils were isolated from venous blood of healthy adult volunteers. Briefly, venous blood was obtained in tubes containing isocitrate, red blood cells were sedimented in 2% dextran and neutrophils were aseptically purified by centrifugation on Ficoll-Paque cushions. Contaminating erythrocytes were removed by hypotonic lysis and neutrophils were resuspended in Mg^2+-free HBSS containing 1.6 mM of CaCl2.
(FIG. 7D), D1=(28a) (FIGS. 7E and 7J), D2=(39) (FIG. 7F), D3=(47a) (FIGS. 7G and 7J), D4=(89) (FIG. 7H) prior to the addition of MSU (1 mg/ml).
The intracellular calcium concentration was determined with a spectrofluorometer and is expressed as the area under the curve (from the MSU injection up to 100 sec).
Changes in cytoplasmic calcium were then measured after the addition of MSU or HBSS (the negative control) using two excitation wavelengths at 340 and 380 nm and an emission wavelength of 510 nm. The free internal calcium concentration was estimated from the ratio of the fluorescence values obtained at 340 and 380 nm. The results are calculated as the area under the curve of the intracellular calcium concentration as a function of time (0-100 sec relative to stimulus addition).
Since one of the earliest molecular events in neutrophils that is initiated by MSU is the mobilization of intracellular calcium stores, the effect of (91) (CCl), (43) and (47a) was assessed on this early signalling event. Briefly, and as described in further detail above, human neutrophils were incubated with the fluorescent calcium indicator Fura-2 prior to incubation with a range of concentrations of (91) (CCl), (43) or (47a) and stimulated with MSU. Fura-2 monitors the increase in cytoplasmic calcium caused by its release from intracellular stores.

[2] = Concentration in circulating leukocytes of mice after subcutaneous injection
Experimental: Blood was harvested by cardiac puncture and centrifuged to obtain circulating leukocytes. The concentration of the compound in the leukocytes (FIGS. 11A and B) was determined by mass spectrometry. The concentration of (91) (CCl) or CH-35 (43) is expressed as the means of the amount of (91) (CCl) or CH-35 (43) measured in circulating leukocytes (ng/ml) of 5 mice harvested at the same time point.

[3] = system: human neutrophils stimulated with MSU; assay: Superoxide production by human neutrophils (cytochrome C reduction); format: cell-based; details: for lowest concentration inhibiting MSU-induced superoxide production: 1 mg/ml MSU
Experimental: The results are expressed as a ratio of the superoxide produced by the MSU control.
Superoxide production was measured using the reduction of cytochrome C assay. The difference between the optical density readings at 550 nm and 540 nm read within the first 10 minutes was multiplied by the extinction coefficient of cytochrome C to obtain the number of nmol O2 produced by 1×10^6 cells. The results are expressed as nmol O2/1×10^6 cells/ml.
An additional neutrophil effector function that is calcium-dependent, known to be activated by MSU and that can cause damage to the inflamed joint, is the production of ROS.

[4] = Plasma concentration and half-life in mice after subcutaneous injection
Experimental: The concentration of the compound in the plasma (FIGS. 10A and B) was determined by mass spectrometry. The concentration of (91) (CCl) or CH-35 (43) is expressed as the means of the amount of (91) (CCl) or CH-35 (43) measured in the plasma (ng/ml) of 5 mice harvested at the same time point.

[5] = system: human neutrophils stimulated with MSU; assay: IL-1 release by TNF-α primed human neutrophils (ELISA); format: cell-based; details: 1 mg/ml MSU, 3 h
Experimental: (§1) Extracellular CXCL8/IL-8 or IL-1β were quantified by ELISA (Invitrogen). All samples were measured in duplicate.
The production and secretion of mature IL-1 requires two stimuli. Human neutrophils were, therefore, primed with TNF-α prior to stimulation with MSU. […] (FIG. 8H-J).

[6] = system: MSU-induced leukocyte recruitment to the dorsal air-pouch; assay: Air-pouch model, compound given 1.5 hours after MSU; format: in vivo, mice; details: for lowest dose significantly dampening MSU-induced leukocyte recruitment: subcutaneous 1.5 hours after MSU
Experimental: (§2) An air-pouch was generated on the dorsum of mice over a period of seven days by injecting air subcutaneously. […] Seven hours after the administration of MSU, the exudate in the air pouches was harvested by two flushes with 2 ml and one with 1 ml of PBS+0.5 M EDTA and the number of recruited leukocytes determined by flow cytometry. Leukocytes were stained with an anti-CD45 and anti-Ly6 G antibody.

[7] = system: human neutrophils stimulated with MSU; assay: CXCL8/IL-8 release by human neutrophils (ELISA); format: cell-based; details: for lowest concentration giving significant decrease in MSU-induced release of IL-8: 1 mg/ml MSU, 3 h
Experimental: as §1
In addition, since IL-1 induces the expression of adhesion molecules on endothelial cells as well as the synthesis of pro-inflammatory cytokines, which together promote a massive recruitment of neutrophils, the ability of CCl (91) and CH-35 (43) to dampen the production of IL-1 was also assessed.

[8] = system: human neutrophils stimulated with fMLP; assay: fMLP-induced increase in cytoplasmic calcium in human neutrophils; format: cell-based; details: 10 μM compound, 10^−7 M fMLP
Experimental: The intracellular calcium concentration was determined with a spectrofluorometer and is expressed as the area under the curve.
To assess the specificity of CCl (91) towards neutrophil activation by MSU, it was determined whether CCl (91) was able to inhibit neutrophil responses towards an unrelated stimulus. A bacterial stimulus was chosen because neutrophil activation in response to this stimulus affects the survival of the host. Briefly, human neutrophils were incubated with the 10 μM CCl (91) prior to the activation with the bacterial peptide fMLF. […] In the presence of CCl (91), however, the cytoplasmic calcium response was unaffected.

[9] = system: MSU-induced leukocyte recruitment to the dorsal air-pouch; assay: Air-pouch model, compound given 5 min prior to MSU; format: in vivo, CD-1 mice
Experimental: as §2

[10] = Acute toxicity study in rats; format: in vivo
[11] = system: atherosclerosis in LDLR KO mice; assay: Mouse model of atherosclerosis, high-fat diet; format: in vivo
Experimental: LDLR KO mice were randomly divided into 4 groups and either fed a control (CD) diet (group 1 & 2) or high-fat (group 3 & 4) diet. The high-fat (HF) diet contained 0.2% total cholesterol, 21% total fat by weight (42% kcal from fat), >60% of total fatty acids) and was high in sucrose (34% by weight). The animals and their feed were weighed every week.
Mice in group 2 & 4 were administered a dose of 0.5 μmol/kg CCl subcutaneously (s.c), 3 times a week for 8 weeks.
Blood was drawn from mice after the 8-week diet. Serum was prepared from the drawn blood and frozen until analysis. Serum triglycerides and cholesterol were measured in serum of mice by our Multidisciplinary and Microbiology Laboratory Service.
The aortic lesion ‘en face’ assay and Sudan IV staining was performed on aortas harvested from all mice. The percent lipid stained area in the aortic branch and the descending aorta was compared between mice using the ‘region of interest’ tool in ImageJ.
Blood was drawn from mice after the 8-week diet. Serum was prepared from the drawn blood and frozen until analysis. The levels of cytokines in the serum were measured by Luminex assay. The cytokines assayed were Eotaxin (CCL11), CCL21, G-CSF (CSF-3), RANKL, VEGF-A, IL-1 beta, IL-6 & MCP-1 (CCL2). These cytokines were chosen based on a cytokine signature that was reported to reflect the development of atherosclerosis in ApoE KO mice. The LDLR KO model was used since the inflammatory aspect of atherosclerosis is better represented in this model.

[12] = system: MSU-induced leukocyte recruitment to the dorsal air-pouch; details: literature value (Chia et al. 2008); cited from earlier work
[13] = 0.5 μmol/kg s.c. 3 times a week, 8 weeks, HF diet
[14] = en face assay, Sudan IV, HF+CCl

Molecule: COc1cc2c(c(OCc3ccccc3Cl)c1OC)-c1ccc(OC)c(=O)cc1[C@@H](NC(C)=O)CC2 [(14), N-[(7S)-2,3,10-trimethoxy-9-oxo-1-((phenyl(2-chloro))methoxy)-5,6,7,9-tetrahydrobenzo[α]heptalen-7-yl] acetamide]
- effect on MSU-induced calcium levels [1]: neutrophil-inhibitory effects

Molecule: COc1cc2c(c(OC)c1OC)-c1ccc(SC)c(=O)cc1[C@@H](NC(C)=O)CC2 [(39), N-[(7S)-1,2,3-trimethoxy-10-methylsulfanylo-9-oxo-5,6,7,9-tetrahydrobenzo [α]heptalen-7-yl]acetamide]
- effect on MSU-induced calcium levels [1]: neutrophil-inhibitory effects

Molecule: CCCOc1cc2c(c(OC)c1OC)-c1ccc(SC)c(=O)cc1[C@@H](NC(C)=O)CC2 [(43), N-[(7S)-3-propoxy-1,2-dimethoxy-10-methylsulfanyl-9-oxo-5,6,7,9-tetrahydrobenzo [α]heptalen-7-yl]acetamide]
- time of peak concentration in circulating leukocytes ([2]; 5 μmol/kg subcutaneous, mice): 15 min
- effect on MSU-induced calcium levels [1]: neutrophil-inhibitory effects
- lowest concentration significantly inhibiting the MSU-induced increase in intracellular calcium [1]: 0.1 µM
- type of dose response, cytoplasmic calcium [1]: classical monotonic dose response
- lowest concentration inhibiting MSU-induced superoxide production [3]: 0.1 µM
- time after injection at which plasma level dropped to undetectable ([4]; 5 μmol/kg subcutaneous, mice): about 50 minutes
- time of peak plasma concentration ([4]; 5 μmol/kg subcutaneous, mice): 15 min
- concentration at which MSU-induced IL-1 production is diminished (threshold) [5]: 1 µM
- lowest dose significantly dampening MSU-induced leukocyte recruitment [6]: 2.5 µmol/kg
- lowest concentration giving significant decrease in MSU-induced release of IL-8 [7]: 0.1 µM

Molecule: COC(=O)N[C@H]1CCc2cc(O)c(OC)c(OC)c2-c2ccc(SC)c(=O)cc21 [(89)]
- effect on MSU-induced calcium levels [1]: exception

Molecule: CCOc1cc2c(c(OC)c1OC)-c1ccc(SC)c(=O)cc1[C@@H](NC(=O)OC)CC2 [(91)]
- time of peak concentration in circulating leukocytes ([2]; mouse, in vivo, sc): 15 min
- cytoplasmic calcium response to fMLF in presence of compound [8]: unaffected
- effect on MSU-induced increase in cytoplasmic calcium at 10 μM ([1]; 10 μM): does not have a significant effect
- lowest concentration significantly inhibiting the MSU-induced increase in intracellular calcium [1]: 0.1 µM
- type of dose response, cytoplasmic calcium [1]: non-monotonic dose response
- fold lower concentration than colchicine for inhibiting calcium mobilization ([1]; versus colchicine): about 100 fold
- fold lower dose than colchicine inhibiting leukocyte recruitment ([9]; mouse, in vivo): ~10 fold
- dose inhibiting MSU-induced leukocyte recruitment ([9]; mouse, in vivo, sc): 0.5 µmol/kg
- lowest concentration inhibiting MSU-induced superoxide production [3]: 0.1 µM
- fold lower concentration than colchicine for inhibiting superoxide production ([3]; versus colchicine): about 10 fold
- toxicity compared with colchicine ([10]; acute toxicity study in rats): less toxic than colchicine
- maximal tolerable dose relative to colchicine ([10]; rats): 3 fold
- behaviour and tolerability ([11]; 0.5 μmol/kg s.c. 3 times a week, 8 weeks): did not show any signs of suffering
- serum cholesterol versus HF diet alone [11, 13]: lower
- serum triglycerides versus HF diet alone [11, 13]: lower
- effect on serum cytokine levels ([11]; Luminex, HF diet 8 weeks): no significant effect
- percent of total area of the aortic arch covered by lesions versus HF diet [11, 14]: smaller percent
- percent of total area of the descending aorta covered by lesions versus HF diet [11, 14]: smaller percent
- percent of total area of the descending aorta covered by lesions ([11]; majority of mice in the HF+CCl group): less than 1%
- persistence in the plasma ([4]; 5 μmol/kg subcutaneous, mice): at least 2 hours
- fraction of peak plasma concentration by 60 minutes ([4]; mouse, in vivo, sc): less than ¼
- peak plasma concentration ([4]; mouse, in vivo, sc): 80 ng/mL
- time of peak plasma concentration ([4]; mouse, in vivo, sc): 15 min
- half-life ([4]; mouse, in vivo, sc, 5 umol/kg): 13.3 min
- concentration at which MSU-induced IL-1 production is diminished (threshold) [5]: 0.1 µM
- fold lower dose than effective dose of colchicine inhibiting leukocyte recruitment ([6]; mouse, in vivo): about 10 fold
- lowest dose significantly dampening MSU-induced leukocyte recruitment [6]: 0.5 µmol/kg
- lowest concentration giving significant decrease in MSU-induced release of IL-8 [7]: 0.1 µM
- fold lower concentration than colchicine for inhibiting release of IL-8 ([7]; versus colchicine): about 10 fold

Molecule: COC(=O)N(C)[C@H]1CCc2cc(OC)c(OC)c(OC)c2-c2ccc(SC)c(=O)cc21 [TPO, reference compound]
- effect on MSU-induced calcium levels [1]: inhibition at higher concentrations

Molecule: N-[(7S)-1,2,3,10-tetramethoxy-9-oxo-5,6,7,9-tetrahydrobenzo[α]heptalen-7-yl] acetamide [Colchicine, reference compound]
- lowest concentration significantly inhibiting the MSU-induced increase in intracellular calcium [1]: 10 µM
- dose that effectively dampens MSU-induced leukocyte recruitment in mice [12]: 5 µmol/kg
- effect on MSU-induced leukocyte recruitment at 0.5 μmol/kg ([9]; 0.5 μmol/kg, 5 min prior to MSU): lost its potency to significantly inhibit
- dose inhibiting MSU-induced leukocyte recruitment ([9]; subcutaneous 5 min prior to MSU, 7 hours): 5 µmol/kg
- lowest concentration inhibiting MSU-induced superoxide production [3]: 1 µM
- concentration at which MSU-induced IL-1 production is diminished (threshold) [5]: 10 µM
- effect on MSU-induced leukocyte recruitment at 0.5 μmol/kg ([6]; 0.5 μmol/kg, after MSU): no longer able to significantly inhibit; also recorded: loses its anti-inflammatory activity
- lowest concentration giving significant decrease in MSU-induced release of IL-8 [7]: 1 µM
